This is an account of results in US20120208883A1, “TREATMENT OF ONCOLOGICAL DISEASES” (priority 2008, published 2012).

Molecules are shown by their SMILES.

Test [1] has as its system NCI-H460 cell line. In words: Anti-tumoral activity in vivo, NCI-H460 subcutaneous tumor. Details: species or system CD1 nude mice. The following applies: acetyl L-carnitine 200 mg/kg po qdx5/wx4w; cisplatin 4 mg/kg ip q4dx5. As to the method:
(§1) Anti-tumoral activity in vivo (CD1 Nude mouse) using five different tumoral cell lines.
(§2) The tumors were generated by subcutaneous injection in the right flank of CD1 nude mice of NCI-H460 tumor cells (3×10^6/100 μl/mouse), in 0.1 ml medium Tc199.
(§3) Treatments started when tumors were palpable, 8 mice per group were used.
(§4) Acetyl L-carnitine was administered po (oral administration) at 200 mg/kg according to the schedule qdx5/w (once per day for 5 days per week).
(§5) Tumor volume (TV) was calculated biweekly by measuring the diameter of the tumors with a Vernier caliper according to the formula
(§6) where d and D are the shortest and longest diameters, respectively. The efficacy of the drug treatment was assessed as the tumor volume inhibition according to the formula reported underneath: […]

Test [2] relates to Human A549 NSCLC cell line. In words: Anti-tumoral activity in vivo, A549 subcutaneous tumor. Set-up: species or system CD1 nude mice. The following applies: acetyl L-carnitine 200 mg/kg po qdx5/wx4w, cisplatin 4 mg/kg ip q4dx6. As to the method: as §1
The tumors were generated by subcutaneous injection in the right flank of CD1 nude mice of A549 tumor cells (3×10^6/100 μl/mouse) in 0.1 ml medium Tc199.
as §3, §4, §5, §6

Test [3] deals with NCI-H460 non-small cell lung carcinoma. In words: Antitumor activity of L-carnitine in combination with cisplatin against NCI-H460. It counts as in vivo. The procedure: Treatments started three days after tumor injection. To evaluate the antitumor activity, tumor diameters were measured with a Vernier caliper. […] When tumors reached a volume of 1-2 cm^3, mice were sacrificed by cervical dislocation. Body weight recording was carried out through the study and mortality was noted.

Test [4] deals with A2780 ADR cell line. Kind of test: Anti-tumoral activity in vivo, A2780 ADR subcutaneous tumor. Set-up: species or system CD1 nude mice. Conditions: acetyl L-carnitine 200 mg/kg po qdx5/wx3w, doxorubicin 6 mg/kg iv q7dx3. The procedure: as §1
The tumors were generated by subcutaneous injection in the right flank of CD1 nude mice of A2780 ADR tumor cells (5×10^6/100 μl/mouse) in 0.1 ml medium Tc199.
as §3, §4
The reference compound doxorubicin was delivered intravenously according to the schedule q7dx3, at a dose of 6 mg/kg.
as §5, §6

The subject of test [5] is NCI-H1650 cell line. Kind of test: Anti-tumoral activity in vivo, NCI-H1650 subcutaneous tumor. Details: species or system CD1 nude mice. The following applies: acetyl L-carnitine 200 mg/kg po qdx5/wx3w; cisplatin 4 mg/kg ip q4dx6. The procedure:
as §1
The tumors were generated by subcutaneous injection in the right flank of CD1 nude mice of NCI-H1650 tumor cells (5×10^6/200 μl/mouse) in suspension in 0.1 ml medium Tc199+0.1 ml Matrigel.
as §3, §4, §5, §6

Test [6] has as its system NCI-H460 metastatic clone. In words: Anti-tumoral and antimetastatic activity in vivo, NCI-H460 metastatic clone. Set-up: species or system CD1 nude mice. The following applies: for antimetastatic effect on spontaneous lung metastases: NCI-H460 metastatic clone injected subcutaneously; for % inhibition of lung metastases / TVI %: acetyl L-carnitine 200 mg/kg po qdx5/wx4w, cisplatin 5 mg/kg iv q7dx4. As to the method: as §1, §2, §3, §4, §5, §6

Test [7] concerns tumour mass. Conditions: WO/2000/06134; ALC 100 mg/kg orally; cited from earlier work.
Test [8] has as its system A2780/Dx multidrug-resistant ovarian tumor cell line. In words: Anti-proliferative activity in vitro (MTT assay), A2780/Dx. It counts as cell-based. Conditions: 10 mM, 6 days of treatment, 0.1% FBS. As to the method: (§7) The anti-proliferative activity of acetyl L-carnitine was evaluated in two different NSCLC tumor cell lines (NCI-H460 and NCI-H1650) and on one ovarian tumor cell line (A2780/Dx multidrug-resistant).
(§8) Cells were seeded in 96-well tissue culture plates and treated for three days (NCI-H460 NSCLC) or six days (NCI-H1650 NSCLC and A2780/Dx cells) with acetyl L-carnitine (10 mM in 0.1% FBS). To test the effect of acetyl L-carnitine on cell growth, tumor cells were seeded in 96-well tissue culture plates at approximately 10% confluence and were allowed to attach and recover for at least 24 h. Tumor cells were exposed to treatment protocol for 72 h or 6 days in 0.1% FBS at 37° C., then medium culture (RPMI 1640) was removed and 100 μl/well of medium were added containing 25 μl/well of a solution 5 mg/ml tetrazolium salt (MTT) assay, (final 1 mg/ml). Plates were kept at 37° C. in incubator with 5% CO2 for 2 h for the formation of blue crystals. […] The cell survival was determined as optical density by a Multiskan spectrofluorimeter at 570 nm (Hansen M. B., et al., J. Immunol. Methods, 1989, 119, 203). Percentage of tumor cell inhibition in the presence of 10 mM acetyl L-carnitine was evaluated and compared with that obtained in the absence of acetyl L-carnitine applying the statistical comparison by means of the Mann-Whitney test.
A general note: Tetrazolium assays rely on reduction of a dye to a coloured formazan, in cell work by metabolically active cells.

Test [9] deals with NCI-H460 NSCLC tumor cell line. Kind of test: Anti-proliferative activity in vitro (MTT assay), NCI-H460. It counts as cell-based. Conditions: 10 mM, 72 h of treatment, 0.1% FBS. The procedure:
as §7, §8

Test [10] has as its system NCI-H1650 NSCLC tumor cell line. Kind of test: Anti-proliferative activity in vitro (MTT assay), NCI-H1650. It is filed as cell-based. The following applies: 10 mM, 6 days of treatment, 0.1% FBS. As to the method:
as §7, §8

The subject of test [11] is SJSA-1 (with amplification of mdm2) osteosarcoma cells. Kind of test: Antiproliferative activity on SJSA-1 osteosarcoma cells (MTT assay). It is filed as cell-based. The procedure:
The evaluation of antiproliferative activity was carried out by MTT assay.

Consider `N.N.[Cl][Pt][Cl]` [Cisplatin, cisplatin, reference compound], for which the “TVI % ± SE” value in [1] came out at 41 ± 5%. Besides, the TVI % was found to be 49 ± 13% in test [2]; 49% in test [2] (listed as cisplatin); 60% in test [4]; 23 ± 3% in [5]; 41 ± 5% in test [6]. Moreover, in [3] (day +32, cisplatin 4 mg/kg ip q4d/wx3w, L-carnitine 200 mg/kg po qdx5/wx3w), the “TVI % ± SE +32” value is given as 80 ± 21%. Moreover, the “antimetastatic effect on spontaneous lung metastases” value in test [6] was “ineffective”. In addition, the “% inhibition of lung metastases” value in [6] is on record as 0%.
Take `CC(=O)O[C@H](CC(=O)[O-])C[N+](C)(C)C` [acetyl L-carnitine (ALC)]: the “effect on the formation of lung metastases” value in test [7] was “significant inhibitory effect”.
On to `CC(=O)O[C@H](CC(=O)[O-])C[N+](C)(C)C` [Acetyl L-carnitine, acetyl L-carnitine], for which the “effect on tumour growth” value in test [7] is on record as “no effect on tumour growth”. For the same molecule, in test [1], the “TVI % ± SE” value worked out at 40 ± 6%. The TVI % was 27 ± 3% in [2]; 27% in [2] (listed as acetyl L-carnitine); 28 ± 11% in test [4]; 28% in test [4] (listed as acetyl L-carnitine); 19 ± 4% in [5]; 34 ± 5% in test [6]. The “Tumor cell inhibition %” value came out at 29% in test [8]; 32% in test [9] (P <0.001); 41% in [10] (P <0.001); 24% in test [11] (10 mM, 72 h of exposure followed by 72 h of recovery, 0.1% FBS, P 0.0037 vs control). The “Absorbance ± SE at 570 nm” value is given as 234 ± 16 in test [8] (control 331 ± 18), 509 ± 8 in test [9] (control 745 ± 18) and 285 ± 11 in test [10] (control 484 ± 25). In test [6], the “antimetastatic effect on spontaneous lung metastases” value is recorded as “statistically significant antimetastatic effect”. Moreover, the “% inhibition of lung metastases” value in [6] turned out to be 50%. Moreover, in test [11] (72 h of exposure, medium containing 0.1% FBS), the “antiproliferative activity compared with cisplatin” value is on record as “statistically significant more active than cisplatin”.
With `CC(=O)O[C@H]1C(=O)[C@@]2(C)[C@H]([C@H](OC(=O)c3ccccc3)[C@]3(O)C[C@H](OC(=O)[C@H](O)[C@@H](NC(=O)c4ccccc4)c4ccccc4)C(C)=C1C3(C)C)[C@]1(OC(C)=O)CO[C@@H]1C[C@@H]2O` [Paclitaxel, paclitaxel, reference compound], in test [7], the “inhibition of tumour growth (TVI)” value is 88%.
Regarding `C[N+](C)(C)C[C@H](O)CC(=O)[O-]` [L-carnitine], the “potentiation of the cytotoxic activity of cisplatin” value in [3] (L-carnitine 200 mg/mice/day given chronically) is “not able to potentiate the cytotoxic activity of cisplatin”.
In [4], `COc1cccc2c1C(=O)c1c(O)c3c(c(O)c1C2=O)C[C@@](O)(C(=O)CO)C[C@@H]3O[C@H]1C[C@H](N)[C@H](O)[C@H](C)O1` [Doxorubicin, doxorubicin, reference compound] came in with a TVI % of 60 ± 11%.
